Patent publication EP3046573B1, “AMYLIN ANALOGUES” (Zealand Pharma A/S, priority 2013, dated 2015)
Numbered stars: 1 amine (or outer) side, 2 acyl side, 3 side chain; on linkers, the order of the positions; unused ones are H or OH. Bridge positions count the residues as written; N and C are the ends. Square brackets hold non-standard residues; d marks the D form. Peptide text beside a SMILES is read from it. * marks the point of attachment. C20 diacid = O=C(O)CCCCCCCCCCCCCCCCCCC(=O)*; γGlu = O=C(O)[C@H](CCC(=O)[*:2])N[*:1]; NMeI = CC[C@H](C)[C@H](NC)C(=O)O; Sar = CNCC(=O)O

Legend:
[1] = system: Zucker diabetic fatty (ZDF) rats; test: Glycemic control in Zucker diabetic fatty rats; assay type: in vivo, male Zucker diabetic fatty (ZDF) rats; conditions: 40 nmol/kg sc twice daily (bid), P < 0.001
Description: (§1) Whole-blood glucose levels were determined on tail-vein blood samples by the Biosen (EKF Diagnostic, Germany) enzyme-based electrode method. Blood samples were analyzed for glycated hemoglobin (HbA1c) using a Cobas c111 analyzer (Roche Diagnostics, Mannheim, Germany). Plasma insulin levels were measured using a Meso Scale Discovery (MSD) system (Rockville, MD, USA). Liver fat content was determined by magnetic resonance (MR) scanning using an Echo systems MR scanner. Fat depots were measured by weighing of excised fat.
84 male Zucker diabetic fatty (ZDF) rats (9-10 weeks of age) were used in this study. The animals were housed in groups of n = 2. Stratification of the animals was based on non-fasting blood glucose (primary), changes in non-fasting blood glucose measured from the arrival of the animals until one week before the initiation of the study (secondary) and body weight (tertiary). The animals were further divided into two "teams" with a pair-fed group (group 2) allocated to team 2. […] The amount of food eaten by the animals treated with Compound 82 (30 nmol/kg, team 1) each day was determined, and the same amount was given to a vehicle-treated pair-fed group of animals the following day. […]
Statistical analyses were performed using GraphPad™ Prism version 5. The measured parameters were compared using one- way ANOVA followed by Dunnett's multiple comparison test. […]

[2] = Assessment of chemical stability: normalized purity by RP-HPLC after incubation at 40 °C; assay type: physicochemical; conditions: normalized purity (T=0 set to 100), 0.2 mg/ml; for Chem. stability; 7 days, 40°C pH 4: pH 4, 7 days; for Chem. stability; 7 days, 40°C pH 7.5: pH 7.5, 7 days; for Chem. stability; 7 days, 40°C pH 9: pH 9, 7 days
Description: Samples of each test peptide were dissolved in MilliQ™ water, and the pH of the solution was adjusted to pH 4, pH 7.5 or pH 9, respectively, using either HCI or NaOH. The final peptide concentration was 0.2 mg/ml. Samples were placed in glass vials and incubated at 40 °C. The samples were analyzed by RP-HPLC on a C8 column with gradient elution using an ammonium formate/water eluent system, or on a C18 column with gradient elution using a trifluoroacetic acid/water eluent system. The area-percentage (area-%) of the main peak after incubation time T = t (relative to time T = 0) was determined by UV spectroscopy at 220 nm.
The purity was first determined as follows: Purity(area−%) = (area of main peak/total area of all peaks) × 100. [formula]
The purity was then normalized between time points by setting purity at time 0 (T=0) to 100 for each pH value for a given peptide, as follows: Normalised area−%at time t(T = t) = [area−%(T = t)/area−%(T = 0)] × 100. [formula]
The normalized purity values in Table 2 were determined after 7 days of incubation. Table 2. EC50, chemical stability and fibrillation data for compounds of the invention

[3] = Solubility assessment (turbidity absorbance at 325 nm); assay type: physicochemical; conditions: stock 2 mg/ml diluted 1:1, ambient temperature (typically 25°C), n=1; for Solubility, Acetate buffer pH 4: 100 mM acetate buffer pH 4.0; for Solubility, Acetate buffer pH 5: 100 mM acetate buffer pH 5.0; for Solubility, Histidine buffer pH 6: 100 mM histidine buffer pH 6.0; for Solubility, Histidine buffer pH 7: 100 mM histidine buffer pH 7.0; for Solubility, Phosphate buffer pH 6: 100 mM phosphate buffer pH 6.0; for Solubility, Phosphate buffer pH 7: 100 mM phosphate buffer pH 7.0; for Solubility, Phosphate buffer pH 7.5: 100 mM phosphate buffer pH7.5
How it was run: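 Turbidity read as absorbance at 325 nm (also 280 nm), single samples at ambient temperature (typically 25°C); ≤ 0.02 units counts as ≥ 1 mg/ml soluble. Samples made by 1:1 dilution of a 2 mg/ml acidic stock into 100 mM acetate, histidine or phosphate buffers, pH 4.0–7.5.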

[4] = molecular target: T1, human calcitonin receptor (hCTR2) (Homo sapiens, UniProt P30988); test: hCTR2 assay: induction of cAMP (AlphaScreen cAMP Assay kit) in COS7 cells expressing hCTR2; assay type: cell-based
T1 construct: expressed in transfected cells
T1 sequence (P30988 25-474): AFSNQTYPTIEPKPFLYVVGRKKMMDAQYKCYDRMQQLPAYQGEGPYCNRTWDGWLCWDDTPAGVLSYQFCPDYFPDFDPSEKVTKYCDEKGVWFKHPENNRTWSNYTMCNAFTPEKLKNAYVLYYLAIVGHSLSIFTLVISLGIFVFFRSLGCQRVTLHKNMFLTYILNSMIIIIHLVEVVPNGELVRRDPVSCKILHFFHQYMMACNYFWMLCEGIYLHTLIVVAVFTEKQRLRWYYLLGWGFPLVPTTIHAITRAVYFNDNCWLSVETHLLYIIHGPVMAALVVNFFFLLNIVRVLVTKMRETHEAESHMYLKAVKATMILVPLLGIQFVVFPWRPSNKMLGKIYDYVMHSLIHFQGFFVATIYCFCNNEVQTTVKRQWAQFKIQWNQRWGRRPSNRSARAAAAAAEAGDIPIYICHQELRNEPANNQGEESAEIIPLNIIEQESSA
How it was run: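 cAMP read-out by AlphaScreen after cell lysis; EC50 and % efficacy vs pramlintide from 4-parameter logistic fitting. Agonist stimulation: hCTR2-COS7 stable cells, 15 min, 37° C, 100 µM IBMX, 0.1% casein, Tyrode/HEPES pH 7.4.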

[5] = system: male Zucker diabetic fatty (ZDF) rats; test: Efficacy testing: glycemic control in Zucker diabetic fatty rats; assay type: in vivo
Description: as §1
84 male Zucker diabetic fatty (ZDF) rats (9-10 weeks of age) were used in this study. The animals were housed in groups of n = 2. Stratification of the animals was based on non-fasting blood glucose (primary), changes in non-fasting blood glucose measured from the arrival of the animals until one week before the initiation of the study (secondary) and body weight (tertiary). The animals were further divided into two "teams" with a pair-fed group (group 2) allocated to team 2. Animals from group 2 were pair-fed in order to compare between the contribution made by reduced food intake and by drug-induced effects on glycemic control. The amount of food eaten by the animals treated with Compound 82 (30 nmol/kg, team 1) each day was determined, and the same amount was given to a vehicle-treated pair-fed group of animals the following day.
Rats were treated for 4 weeks with Compound 82 (3, 30 and 100 nmol/kg, sc, every (ev.) 5th day), Compound 18 (30 nmol/kg sc, every 5th day), or the GLP-1 analogue liraglutide (40 nmol/kg sc, twice daily (bid)).
The effects of the compounds on glycemic control were investigated by measurement of non-fasting and fasting blood glucose levels and HbA1c levels.
Statistical analyses were performed using GraphPad™ Prism version 5. The measured parameters were compared using one- way ANOVA followed by Dunnett's multiple comparison test. Comparison between the pair-fed vehicle-treated group and the Compound 82 (30 nmol/kg) group was done using Student's two-tailed and unpaired t-test. Differences were considered statistically significant at p < 0.05.

Row | Compound | blood glucose levels (non-fasting and fasting) [1] | Chem. stability; 7 days, 40°C pH 4 [2] [area-%] | Chem. stability; 7 days, 40°C pH 7.5 [2] [area-%] | Chem. stability; 7 days, 40°C pH 9 [2] [area-%] | Solubility, Acetate buffer pH 4 [3] | Solubility, Acetate buffer pH 5 [3] | Solubility, Histidine buffer pH 6 [3] | Solubility, Histidine buffer pH 7 [3] | Solubility, Phosphate buffer pH 6 [3] | Solubility, Phosphate buffer pH 7 [3] | Solubility, Phosphate buffer pH 7.5 [3] | EC50 [4] [nM] | terminal HbA1c levels ([5]; 40 nmol/kg sc twice daily (bid), 4 weeks, vehicle 8.7 ± 0.2) [%] | blood glucose lowering effect ([5]; 40 nmol/kg sc twice daily, P < 0.001)
1 | liraglutide | significant blood glucose lowering effect | – | – | – | – | – | – | – | – | – | – | – | – | –
2 | CC[C@H](C)[C@@H](C(=O)N[C@@H](CC(C)C)C(=O)N[C@@H](CO)C(=O)N[C@@H](CO)C(=O)N[C@H](C(=O)N[C@@H](CC(N)=O)C(=O)N[C@H](C(=O)NCC(=O)N[C@@H](CO)C(=O)N[C@@H](CC(N)=O)C(=O)N[C@H](C(=O)N1CCC[C@H]1C(N)=O)[C@@H](C)O)C(C)C)[C@@H](C)O)N(C)C(=O)[C@H](C)NC(=O)CN(C)C(=O)[C@H](Cc1ccccc1)NC(=O)[C@H](CC(N)=O)NC(=O)[C@H](CC(N)=O)NC(=O)[C@H](CO)NC(=O)[C@@H](CO)NC(=O)[C@H](Cc1c[nH]cn1)NC(=O)[C@H](Cc1c[nH]cn1)NC(=O)[C@H](CC(C)C)NC(=O)[C@H](Cc1ccccc1)NC(=O)[C@H](CCC(=O)O)NC(=O)[C@H](C)NC(=O)[C@H](CC(C)C)NC(=O)[C@H](CCCNC(=N)N)NC(=O)[C@H](CCC(N)=O)NC(=O)[C@@H](NC(=O)[C@H](C)NC(=O)[C@@H]1CSSC[C@H](NC(=O)[C@H](CCCNC(=N)N)NC(=O)CC[C@H](NC(=O)CCCCCCCCCCCCCCCCCCC(=O)O)C(=O)O)C(=O)N[C@@H](CC(N)=O)C(=O)N[C@@H]([C@@H](C)O)C(=O)N[C@@H](C)C(=O)N[C@@H]([C@@H](C)O)C(=O)N1)[C@@H](C)O [Compound 29, [19CD]-isoGlu-RC()NTATC()ATQRLAEFLHH-DSer-SNNF-Gly(Me)-A-Ile(Me)-LSSTNVGSNTP-NH2] ({C20 diacid-γGlu}-RCNTATCATQRLAEFLHH[dS]SNNF[Sar]A[NMeI]LSSTNVGSNTP-NH2; disulfide 2-7) | – | 100 | 69 | 53 | SS (SS indicates solubility ≥ 1mg/ml) | SS (SS indicates solubility ≥ 1mg/ml) | SS (SS indicates solubility ≥ 1mg/ml) | SS (SS indicates solubility ≥ 1mg/ml) | SS (SS indicates solubility ≥ 1mg/ml) | SS (SS indicates solubility ≥ 1mg/ml) | SS (SS indicates solubility ≥ 1mg/ml) | 0.42 | – | –
3 | liraglutide [reference compound] | – | – | – | – | – | – | – | – | – | – | – | – | 5.8 ± 0.2 | significant
4 | CC[C@H](C)[C@@H](C(=O)N[C@@H](CC(C)C)C(=O)N[C@@H](CO)C(=O)N[C@@H](CO)C(=O)N[C@H](C(=O)N[C@@H](CC(N)=O)C(=O)N[C@H](C(=O)NCC(=O)N[C@@H](CO)C(=O)N[C@@H](CC(N)=O)C(=O)N[C@H](C(=O)N1CCC[C@H]1C(N)=O)[C@@H](C)O)C(C)C)[C@@H](C)O)N(C)C(=O)[C@H](C)NC(=O)CN(C)C(=O)[C@H](Cc1ccccc1)NC(=O)[C@H](CC(N)=O)NC(=O)[C@H](CC(N)=O)NC(=O)[C@H](CO)NC(=O)[C@H](CO)NC(=O)[C@H](CCCNC(=N)N)NC(=O)[C@H](Cc1c[nH]cn1)NC(=O)[C@H](CC(C)C)NC(=O)[C@H](Cc1ccccc1)NC(=O)[C@H](CCC(=O)O)NC(=O)[C@H](C)NC(=O)[C@H](CC(C)C)NC(=O)[C@H](CCCNC(=N)N)NC(=O)[C@H](CCC(N)=O)NC(=O)[C@@H](NC(=O)[C@H](C)NC(=O)[C@@H]1CSSC[C@H](NC(=O)[C@H](Cc2c[nH]c3ccccc23)NC(=O)CC[C@H](NC(=O)CCCCCCCCCCCCCCCCCCC(=O)O)C(=O)O)C(=O)N[C@@H](CC(N)=O)C(=O)N[C@@H]([C@@H](C)O)C(=O)N[C@@H](C)C(=O)N[C@@H]([C@@H](C)O)C(=O)N1)[C@@H](C)O [Compound 125, [19CD]-isoGlu-WC()NTATC()ATQRLAEFLHRSSNNF-Gly(Me)-A-Ile(Me)-LSSTNVGSNTP-NH2] ({C20 diacid-γGlu}-WCNTATCATQRLAEFLHRSSNNF[Sar]A[NMeI]LSSTNVGSNTP-NH2; disulfide 2-7) | – | 77 | 70 | 68 | SS (SS indicates solubility ≥ 1mg/ml) | SS (SS indicates solubility ≥ 1mg/ml) | SS (SS indicates solubility ≥ 1mg/ml) | SS (SS indicates solubility ≥ 1mg/ml) | II (II indicates solubility ≤ 1 mg/ml) | SS (SS indicates solubility ≥ 1mg/ml) | SS (SS indicates solubility ≥ 1mg/ml) | 0.061 | – | –
